We go through five compounds from patent publication US8067424B2, “Selective inhibitors for cyclin-dependent kinases” (Emory University, priority 2007, dated 2011).

Read-outs that look alike come from different tables or passages of the source.

Holding throughout (assay type): biochemical
One assay concerns the target T1, p38σ MAPK (Homo sapiens, UniProt O15264).
T1 sequence (O15264 1-365): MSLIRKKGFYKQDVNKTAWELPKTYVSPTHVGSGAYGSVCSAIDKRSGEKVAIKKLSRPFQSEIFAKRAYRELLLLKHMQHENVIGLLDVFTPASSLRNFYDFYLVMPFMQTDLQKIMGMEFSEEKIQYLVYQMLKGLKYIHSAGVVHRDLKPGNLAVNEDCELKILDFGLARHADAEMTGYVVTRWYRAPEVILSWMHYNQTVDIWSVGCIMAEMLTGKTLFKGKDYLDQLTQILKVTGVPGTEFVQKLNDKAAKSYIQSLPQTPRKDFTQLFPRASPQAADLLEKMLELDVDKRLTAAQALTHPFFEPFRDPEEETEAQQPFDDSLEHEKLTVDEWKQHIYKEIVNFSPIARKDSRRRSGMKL
In words: Kinase screen: SAPK 4/p38d assay. Here is the method: (§1) Generally, the same procedure was used for all assays. Since the total assay volume was 25.5 microliters, 0.5 microliters of inhibitors at 51× assay concentration were added to the plates before any other addition.
(§2) The basic procedure was to add 0.5 microliters inhibitor/control in DMSO to plate. Fifteen microliters of enzyme/substrate/buffer mix were added and incubated for 5 min. Ten microliters MgATP at the relevant concentration were added and incubated for 30 min. The assay was stopped by adding 5 microliters of 3% orthophosphoric acid. The assay was transferred to a p81 filter plate and read in a scintillation counter of 30 sec/well. Note that this assay procedure was not followed for MKK1, which instead involved a two-step assay, and PKC alpha, which required the addition of lipid vesicles.
SAPK 4/p38d assay: SAPK 4/p38d (5-20 mU diluted in 50 mM Tris pH 7.5, 0.1 mM EGTA, 0.1 mM Na3VO4, 0.1% b-mercaptoethanol, 1 mg/ml BSA) was assayed against MBP in a final volume of 25.5 μl containing 25 mM Tris pH 7.5, 0.1 mM EGTA, 0.33 mg/ml MBP, 10 mM magnesium acetate and 0.005 mM [33P-g-ATP] (50-1000 cpm/pmole) and incubated for 30 min at room temperature. Assays were stopped by addition of 5 μl of 0.5 M (3%) orthophosphoric acid and then harvested onto P81 Unifilter plates with a wash buffer of 50 mM orthophosphoric acid.

Another assay has as its target RSK1 (Homo sapiens, UniProt Q15418). Put plainly: Kinase screen: MAPKAP-K1a assay. On the procedure: as §1, §2
MAPKAP-K1a assay: MAPKAP-K1a (5-20 mU diluted in 20 mM MOPS pH 7.5, 1 mM EDTA, 0.01% Brij35, 5% glycerol, 0.1% b-mercaptoethanol, 1 mg/ml BSA) was assayed against […] (SEQ ID NO: 3) in a final volume of 25.5 μl containing 50 mM Na-b-glycerophosphate pH 7.5, 0.5 mM EDTA, 30 μM substrate peptide, 10 mM magnesium acetate and 0.05 mM [33P-g-ATP] (50-1000 cpm/pmole) and incubated for 40 min at room temperature. Assays were stopped by addition of 5 μl of 0.5 M (3%) orthophosphoric acid and then harvested onto P81 Unifilter plates with a wash buffer of 50 mM orthophosphoric acid.

In the next assay the target is T2, SGK1 (Homo sapiens, UniProt O00141).
T2 sequence (O00141 1-431): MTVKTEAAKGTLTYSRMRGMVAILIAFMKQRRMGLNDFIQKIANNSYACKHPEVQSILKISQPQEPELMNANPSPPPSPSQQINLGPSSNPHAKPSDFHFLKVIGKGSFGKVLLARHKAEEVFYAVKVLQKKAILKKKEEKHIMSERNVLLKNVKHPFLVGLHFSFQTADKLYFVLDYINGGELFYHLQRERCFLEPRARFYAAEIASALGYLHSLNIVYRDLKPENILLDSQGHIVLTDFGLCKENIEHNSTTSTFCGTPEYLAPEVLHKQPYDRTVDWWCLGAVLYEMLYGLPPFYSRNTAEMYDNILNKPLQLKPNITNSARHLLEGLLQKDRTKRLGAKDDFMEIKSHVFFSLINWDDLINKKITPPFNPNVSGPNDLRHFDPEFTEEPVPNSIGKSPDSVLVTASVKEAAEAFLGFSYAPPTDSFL
In words: Kinase screen: SGK assay. Here is the method: as §1, §2
SGK assay: SGK (5-20 mU diluted in 20 mM MOPS pH 7.5, 1 mM EDTA, 0.01% Brij35, 5% glycerol, 0.1% b-mercaptoethanol, 1 mg/ml BSA) was assayed against a modified Crosstide peptide […] (SEQ ID NO: 4) in a final volume of 25.5 μl containing 8 mM MOPS pH 7.0, 0.2 mM EDTA, 30 μM substrate peptide, 10 mM magnesium acetate and 0.02 mM [33P-g-ATP] (50-1000 cpm/pmole) and incubated for 30 min at room temperature. Assays were stopped by addition of 5 μl of 0.5 M (3%) orthophosphoric acid and then harvested onto P81 Unifilter plates with a wash buffer of 50 mM orthophosphoric acid.

In another assay the target is PRK2 (Homo sapiens, UniProt Q16513). In words: Kinase screen: PRK2 assay. On the procedure: as §1, §2
PRK2 assay: 5-20 mU of PRK2 (diluted in 50 mM Tris (pH 7.5), 0.1 mM EGTA, 1 mg/ml BSA, 0.1%, b-Mercaptoethanol) was assayed against Long S6 peptide ([…]) (SEQ ID NO: 10) in a final volume of 25.5 μl containing 50 mM Tris (pH 7.5), 0.1 mM EGTA, 0.1%, b-Mercaptoethanol, 30 μM Long S6 peptide, 10 mM magnesium acetate and 0.005 mM [33P-g-ATP] (500-1000 cpm/pmole) and incubated for 30 mins at room temperature. Assays were stopped by addition of 5 μl of 0.5M (3%) orthophosphoric acid. Assays were harvested onto P81 Unifilter plates using a wash buffer of 50 mM orthophosphoric acid.

Another assay deals with IRR (Homo sapiens, UniProt P14616). In words: Kinase screen: IRR assay. The settings on record: 10 micromolar compound; for remaining activity at 10 µM: read-out: mean activity remaining (as a percentage of the original activity), IRR. On the procedure:
as §1, §2
IRR assay: 5-20 mU of IRR (diluted in 50 mM Hepes (pH 7.5), 0.1 mM EGTA) was assayed against MBP in a final volume of 25.5 μl containing 50 mM Hepes (pH 7.5), 0.1 mM EGTA, 0.33 mg/ml MBP, 10 mM magnesium acetate and 0.005 mM [33P-g-ATP](500-1000 cpm/pmole) and incubated for 30 mins at room temperature. Assays were stopped by addition of 5 μl of 0.5M (3%) orthophosphoric acid. Assays were harvested onto P81 Unifilter plates using a wash buffer of 50 mM orthophosphoric acid.

Where [1] appears, read: 10 micromolar compound, read-out: mean activity remaining (as a percentage of the original activity), p38s MAPK.
The mark [2] stands for this setting: 10 micromolar compound, read-out: mean activity remaining (as a percentage of the original activity), RSK1.
The mark [3] stands for this setting: 10 micromolar compound, read-out: mean activity remaining (as a percentage of the original activity), SGK1.
Setting [4] is: 10 micromolar compound, read-out: mean activity remaining (as a percentage of the original activity), PRK2.

Broadly, the remaining activity is the signal under treatment as a percentage of the control signal. As for `CC[C@H](CO)Nc1cc(NCc2ccccc2)n2ncc(C(C)C)c2n1` [ICEC0067], the remaining activity at 10 µM at p38σ MAPK (setting [1]) came out at 86%; on RSK1 (setting [2]), 62%; on SGK1 (setting [3]) it was 89%; at PRK2 (setting [4]), 96%; on IRR, 23%.
For `C=C[C@H](CO)Nc1cc(NCc2ccccc2)n2ncc(C(C)C)c2n1` [ICEC0065], the remaining activity at 10 µM at p38σ MAPK (setting [1]) was 86%; at RSK1 (setting [2]), 79%; on SGK1 (setting [3]) it was 84%; on PRK2 (setting [4]), 105%; on IRR, 24%.
For the compound `CC(C)c1cnn2c(NCc3ccccc3)cc(N[C@@H](CO)[C@H](O)CO)nc12` [ICEC0318, (3S)-3-(7-(Benzylamino)-3-isopropylpyrazolo[1,5-a]pyrimidin-5-ylamino)butane-1,2,4-triol], the remaining activity at 10 µM worked out at 86% at p38σ MAPK (setting [1]); 75% on RSK1 (setting [2]); 92% at SGK1 (setting [3]); 106% at PRK2 (setting [4]); 32% at IRR.
For `CC(C)c1cnn2c(NCc3ccccc3F)cc(NCCCCCN)nc12` [ICEC-0232], the “mean activity remaining (as a percentage of the original activity), p38s MAPK” value at p38σ MAPK (10 micromolar compound) came out at 78%. In addition, at RSK1 (10 micromolar compound), the “mean activity remaining (as a percentage of the original activity), RSK1” value was 24%. Further, the “mean activity remaining (as a percentage of the original activity), SGK1” value at SGK1 (10 micromolar compound) is listed as 50%. In addition, on PRK2 (10 micromolar compound), the “mean activity remaining (as a percentage of the original activity), PRK2” value came to 106%. Further, the “mean activity remaining (as a percentage of the original activity), IRR” value at IRR worked out at 29%.
Regarding `CC(C)c1cnn2c(NCc3ccccc3)cc(NCCCCCCCN)nc12` [BS-181], the remaining activity at 10 µM is 96% at p38σ MAPK (p38σ MAPK, 10 μM, read-out: Mean Remaining Enzyme Activity (%)); 67% on RSK1 (RSK1, 10 μM, read-out: Mean Remaining Enzyme Activity (%)); 42% on SGK1 (SGK1, 10 μM, read-out: Mean Remaining Enzyme Activity (%)); 90% at PRK2 (PRK2, 10 μM, read-out: Mean Remaining Enzyme Activity (%)).
